The results in this text go back to PubChem BioAssay (NCI).

Among the test systems are RPMI-8226 leukemia; COLO 205 colon; SK-MEL-2 melanoma; PC-3 prostate; RXF 393 renal; IGROV1 ovarian; CAKI-1 renal; 786-0 renal; T-47D breast; HCC-2998 colon.
Common to all, as to test: growth of human tumour cells (NCI), 48 h

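Cells were grown in 96-well plates and exposed to each compound for 48 hours at five concentrations; endpoints were interpolated linearly between bracketing concentrations, or set to the highest concentration if not reached. GI50 = concentration required for 50% inhibition of growth. TGI marks complete inhibition of growth.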

For `OCC#Cc1ccccc1C#Cc1ccc(C#Cc2ccccc2)cc1`, the GI50 in the test on RPMI-8226 leukemia was 6.05 µM; in the test with COLO 205 colon it was 24.9 µM; in the test with SK-MEL-2 melanoma, 51.4 µM; in the test on PC-3 prostate, 15.1 µM; in the test with RXF 393 renal, 26.2 µM; in the test on IGROV1 ovarian, 28.4 µM. For the same molecule, the GI50 in the test on CAKI-1 renal is 44.5 µM; in the test on 786-0 renal, 23.5 µM. Further, the TGI is 22.2 µM with RPMI-8226 leukemia; 70.7 µM with COLO 205 colon; more than 100 µM in the test with SK-MEL-2 melanoma; 34.2 µM with PC-3 prostate; 54.3 µM with RXF 393 renal; more than 100 µM with IGROV1 ovarian. The TGI was more than 100 µM with CAKI-1 renal and 55.9 µM in the test with 786-0 renal.
With `OCC(O)C(O)C(O)C(O)c1nn[nH]n1` (centres undefined), the TGI with RPMI-8226 leukemia, in the test with COLO 205 colon, in the test on SK-MEL-2 melanoma, in the test on IGROV1 ovarian, in the test on CAKI-1 renal and with 786-0 renal was more than 100 µM in each case.
`COc1ccc(-c2cc(-c3ccccc3)nc(NCCNc3ccnc4cc(Cl)ccc34)n2)cc1`: the GI50 was 1.84 µM with COLO 205 colon; 1.84 µM with SK-MEL-2 melanoma; 1.46 µM in the test with IGROV1 ovarian; 1.57 µM with CAKI-1 renal; 1.72 µM with 786-0 renal; 0.812 µM in the test with T-47D breast. The TGI in the test on COLO 205 colon turned out to be 3.83 µM; in the test with SK-MEL-2 melanoma it was 3.43 µM; in the test with IGROV1 ovarian, 3.18 µM; in the test on CAKI-1 renal it was 2.96 µM; with 786-0 renal, 3.35 µM; in the test on T-47D breast it was 2.61 µM.
In the case of `COC(=O)[C@]1(C)CCC[C@]2(C)[C@@H]1CCC13C[C@@H](C=CO1)[C@@H](C)CC32O` (some centres undefined), the GI50 was 7.84 µM in the test with RPMI-8226 leukemia; 64.4 µM in the test with COLO 205 colon; more than 100 µM with SK-MEL-2 melanoma; 38 µM in the test with PC-3 prostate; 66.8 µM in the test on RXF 393 renal; more than 100 µM in the test on IGROV1 ovarian. For the same molecule, the values for the GI50 in the test on CAKI-1 renal and with 786-0 renal were 55.2 µM and 89.5 µM, respectively. In addition, the TGI in the test on RPMI-8226 leukemia is 82 µM; in the test with COLO 205 colon, more than 100 µM; with SK-MEL-2 melanoma it was more than 100 µM; in the test with PC-3 prostate, more than 100 µM; in the test on RXF 393 renal, more than 100 µM; in the test on IGROV1 ovarian it was more than 100 µM. The TGI in the test on CAKI-1 renal and in the test on 786-0 renal was more than 100 µM each time.
Take `Nc1ccc(C(=O)/C=C/c2ccccc2O)cc1`: the TGI in the test on HCC-2998 colon, in the test on COLO 205 colon, in the test with SK-MEL-2 melanoma, with RXF 393 renal, in the test on IGROV1 ovarian and with CAKI-1 renal was more than 100 µM in each case. The molecule further showed a TGI in the test with 786-0 renal of more than 100 µM.
Consider `COCC1N=C(c2cc(OC)c(OC)c(OC)c2-c2cc3c(cc2[C@H](C)O)OCO3)O[C@H]1c1ccccc1` (some centres undefined), for which the TGI was more than 100 µM in the test with HCC-2998 colon; more than 100 µM in the test with RPMI-8226 leukemia; 85.2 µM in the test on COLO 205 colon; more than 100 µM in the test on SK-MEL-2 melanoma; more than 100 µM with IGROV1 ovarian; more than 100 µM with 786-0 renal.
For the molecule `O=c1[nH]c2ccc([N+](=O)[O-])c(Cl)c2c2ccccc12`, the TGI in the test with HCC-2998 colon was 23.6 µM; in the test with RPMI-8226 leukemia, 33.7 µM; in the test on COLO 205 colon, 26.3 µM; in the test with SK-MEL-2 melanoma, 24.7 µM; with IGROV1 ovarian it was 28.9 µM; in the test on CAKI-1 renal, 13.2 µM. For the same molecule, the TGI with 786-0 renal stood at 48.3 µM; with T-47D breast, 73.7 µM.
Take `[Cl-].[Gd+3].[O-]/N=C(\c1ccccc1)c1ccccn1.[O-]/N=C(\c1ccccc1)c1ccccn1.[O-]/N=C(\c1ccccc1)c1ccccn1`: the GI50 in the test with HCC-2998 colon is 30.7 µM; with RPMI-8226 leukemia, more than 100 µM; in the test with COLO 205 colon it was 47.2 µM; in the test on SK-MEL-2 melanoma, 27.1 µM; in the test with IGROV1 ovarian it was 81.4 µM; in the test on CAKI-1 renal, 42.3 µM. Also, the GI50 with 786-0 renal was 57.8 µM. For the same molecule, the TGI in the test with HCC-2998 colon was more than 100 µM; in the test on RPMI-8226 leukemia it was more than 100 µM; in the test with COLO 205 colon, more than 100 µM; with SK-MEL-2 melanoma, 78.5 µM; in the test with IGROV1 ovarian, more than 100 µM; with CAKI-1 renal, more than 100 µM. For the same molecule, the TGI in the test with 786-0 renal is more than 100 µM.
Consider `CN(C)c1ccc(N=C2C=CC(=C(C#N)C#N)c3ccccc32)cc1`, for which the TGI in the test on HCC-2998 colon turned out to be 0.63 µM; in the test with RPMI-8226 leukemia, 11.6 µM; with COLO 205 colon it was 0.199 µM; with SK-MEL-2 melanoma, 6.7 µM; with PC-3 prostate, 10.8 µM; with RXF 393 renal, 8.6 µM. In addition, the TGI is 6.11 µM with IGROV1 ovarian, 12.7 µM in the test on CAKI-1 renal and 11.4 µM with 786-0 renal.
Regarding `O=C(Nc1ccc(C(F)(F)F)cc1[N+](=O)[O-])c1cccnc1`, the TGI in the test on HCC-2998 colon was more than 100 µM; with RPMI-8226 leukemia it was more than 100 µM; in the test on COLO 205 colon, more than 100 µM; with SK-MEL-2 melanoma, more than 100 µM; in the test with IGROV1 ovarian it was more than 100 µM; in the test with CAKI-1 renal it was 8.11 µM. Further, the TGI in the test with 786-0 renal and with T-47D breast was more than 100 µM throughout.
For `Nc1ncnc2c1nc(Cl)n2C1OC(CO)C(O)C1O` (centres undefined), the TGI with COLO 205 colon is more than 100 µM; in the test with SK-MEL-2 melanoma, more than 100 µM; with PC-3 prostate, more than 71.2 µM; with RXF 393 renal, 4.29 µM; in the test on IGROV1 ovarian, more than 100 µM; with CAKI-1 renal it was more than 100 µM. Moreover, the TGI is more than 100 µM in the test with 786-0 renal and 8.15 µM in the test on T-47D breast.
Consider `CCCCCCCCCCCCCCC(C)CCC(=O)O` (centres undefined), for which the TGI with COLO 205 colon, in the test with SK-MEL-2 melanoma, in the test with RXF 393 renal, in the test with IGROV1 ovarian, in the test with CAKI-1 renal and with 786-0 renal was more than 100 µM in each case.
In the case of `CC(=O)[O-].[Mn+3].[O-]c1ccc(Cl)cc1C=NCCN=Cc1cc(Cl)ccc1[O-]`, the GI50 in the test with HCC-2998 colon is 66.3 µM; in the test on SK-MEL-2 melanoma, more than 100 µM; with IGROV1 ovarian it was 7.99 µM; with 786-0 renal, more than 100 µM. Also, the TGI in the test on HCC-2998 colon is more than 100 µM; with SK-MEL-2 melanoma, more than 100 µM; in the test with IGROV1 ovarian, 54.6 µM; with 786-0 renal it was more than 100 µM.
